Experimental data taken from US9556183B2, “Substituted pyrazolylpyrazole derivative and use of same as herbicide” (KYOYU AGRI CO., LTD., priority 2013, dated 2017).

Experiments:
[1] = tested on: Echinochloa crus-galli; test: Paddy herbicidal activity test; type: in vivo; conditions: irrigated paddy pot, treated at 3.5 leaf stage of Echinochloa crus-galli, 30 days
How it was run: (§1)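 Flooded paddy-soil pots (3 cm water) sown with weeds; rice at 2.0 leaf stage transplanted when Echinochloa reached 3.5 leaf stage, then diluted wettable powder dropped into water at prescribed rate per are. After 30 days in greenhouse (mean 30° C), growth inhibition vs untreated (efficacy) or vs complete kill (phytotoxicity) scored on 11 levels.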

[2] = tested on: Monochoria vaginalis; test: Paddy herbicidal activity test; type: in vivo; conditions: irrigated paddy pot, 30 days
How it was run: as §1

[3] = tested on: Scirpus juncoides; test: Paddy herbicidal activity test; type: in vivo; conditions: irrigated paddy pot, 30 days
How it was run: as §1

[4] = tested on: Rice plants; test: Paddy herbicidal activity test, phytotoxicity to transplanted rice; type: in vivo; conditions: rice transplanted at 2.0 leaf stage, 30 days
How it was run: as §1

[5] = tested on: Amaranthus retroflexus; test: Farming soil treatment test; type: in vivo; conditions: soil surface spray prior to weed growth, 30 days
Description: (§2) Evaluation of herbicidal efficacy was carried out by comparing growth inhibition rate (%) with an untreated group, while evaluation of phytotoxicity was carried out by comparing growth inhibition rate (%) with the state of a complete eradication group, and were evaluated at 11 levels indicated below. [table] Field soil was filled into a 1/6000 are pot followed by seeding with Digitaria ciliaris, Chenopodium album and Amaranthus retroflexus and covering with soil. Wettable powder of compounds of formula (I) shown in Table 1 prepared in compliance with the preparation examples were diluted with water to the prescribed amount of chemical and uniformly sprayed onto each soil surface layer using 10 liters of sprayed water per are prior to weed growth following seeding. After treating for 30 days in a glass greenhouse at an average atmospheric temperature of 30° C., the herbicidal efficacy thereof was investigated. Evaluation of herbicidal efficacy was carried out in the same manner as the above-mentioned Test Example 1.

[6] = tested on: Chenopodium album; test: Farming soil treatment test; type: in vivo; conditions: soil surface spray prior to weed growth, 30 days
Description: as §2

[7] = tested on: Digitaria ciliaris; test: Farming soil treatment test; type: in vivo; conditions: soil surface spray prior to weed growth, 30 days
Description: as §2

[8] = tested on: Amaranthus retroflexus; test: Weed foliar treatment test; type: in vivo; conditions: foliar spray, 3 weeks
Description: (§3) Evaluation of herbicidal efficacy was carried out by comparing growth inhibition rate (%) with an untreated group, while evaluation of phytotoxicity was carried out by comparing growth inhibition rate (%) with the state of a complete eradication group, and were evaluated at 11 levels indicated below. [table] Soil was filled into a 1/6000 are pot followed by seeding with Digitaria ciliaris, Chenopodium album and Amaranthus retroflexus, covering with soil, and cultivating in a glass greenhouse at an average atmospheric temperature of 25° C. Wettable powder of Target Compound (I) shown in Table 1 prepared in compliance with the preparation examples were diluted with water to the prescribed amount of chemical and uniformly sprayed onto the weeds using 15 liters of sprayed water per are when Digitaria ciliaris had grown to the 1.0 to 2.0 leaf stage. After treating for 3 weeks in a glass greenhouse at an average atmospheric temperature of 25° C., the herbicidal efficacy thereof was investigated, Evaluation of herbicidal efficacy was carried out in the same manner as the above-mentioned Test Example 1.

[9] = tested on: Chenopodium album; test: Weed foliar treatment test; type: in vivo; conditions: foliar spray, 3 weeks
Description: as §3

[10] = tested on: Digitaria ciliaris; test: Weed foliar treatment test; type: in vivo; conditions: foliar spray at 1.0 to 2.0 leaf stage of Digitaria ciliaris, 3 weeks
Description: as §3

SMILES | herbicidal efficacy (growth inhibition rate level) Echinochloa crus-galli ([1]; 1g a.i./10a) | herbicidal efficacy (growth inhibition rate level) Echinochloa crus-galli ([1]; 5g a.i./10a) | herbicidal efficacy (growth inhibition rate level) Monochoria vaginalis ([2]; 1g a.i./10a) | herbicidal efficacy (growth inhibition rate level) Monochoria vaginalis ([2]; 5g a.i./10a) | herbicidal efficacy (growth inhibition rate level) Scirpus juncoides ([3]; 1g a.i./10a) | herbicidal efficacy (growth inhibition rate level) Scirpus juncoides ([3]; 5g a.i./10a) | phytotoxicity (growth inhibition rate level) Rice plants ([4]; 1g a.i./10a) | phytotoxicity (growth inhibition rate level) Rice plants ([4]; 5g a.i./10a) | herbicidal efficacy (growth inhibition rate level) Amaranthus retroflexus ([5]; 5g a.i./10a) | herbicidal efficacy (growth inhibition rate level) Amaranthus retroflexus ([5]; 10g a.i./10a) | herbicidal efficacy (growth inhibition rate level) Chenopodium album ([6]; 5g a.i./10a) | herbicidal efficacy (growth inhibition rate level) Chenopodium album ([6]; 10g a.i./10a) | herbicidal efficacy (growth inhibition rate level) Digitaria ciliaris ([7]; 5g a.i./10a) | herbicidal efficacy (growth inhibition rate level) Digitaria ciliaris ([7]; 10g a.i./10a) | herbicidal efficacy (growth inhibition rate level) Amaranthus retroflexus ([8]; 5g a.i./10a) | herbicidal efficacy (growth inhibition rate level) Amaranthus retroflexus ([8]; 10g a.i./10a) | herbicidal efficacy (growth inhibition rate level) Chenopodium album ([9]; 5g a.i./10a) | herbicidal efficacy (growth inhibition rate level) Chenopodium album ([9]; 10g a.i./10a) | herbicidal efficacy (growth inhibition rate level) Digitaria ciliaris ([10]; 5g a.i./10a) | herbicidal efficacy (growth inhibition rate level) Digitaria ciliaris ([10]; 10g a.i./10a) | further results
N#Cc1cnn(-c2nn3c(c2Cl)CCCC3)c1NCC1CC1 [Compound 1, 1-(3-chloro-4,5,6,7-tetrahydropyrazolo[1,5-a]pyridin-2-yl)-5-(cyclopropylmethylamino)pyrazole-4-carbonitrile] | 9 (9: 90% to less than 100%) | 10 (10: 100%) | 8 (8: 80% to less than 90%) | 8 (8: 80% to less than 90%) | 8 (8: 80% to less than 90%) | 9 (9: 90% to less than 100%) | 0 (0 (exponent): 0% to less than 10% (growth inhibition rate)) | 1 (1: 10% to less than 20%) | 10 (10: 100%) | 10 (10: 100%) | 10 (10: 100%) | 10 (10: 100%) | 10 (10: 100%) | 10 (10: 100%) | 10 (10: 100%) | 10 (10: 100%) | 10 (10: 100%) | 10 (10: 100%) | 10 (10: 100%) | 10 (10: 100%) | melting point: 165 to 166 °C
N#Cc1cnn(-c2nn3c(c2Cl)CCCC3)c1N(CC1CC1)C(=O)C(F)(F)F [Compound 2, N-(1-(3-chloro-4,5,6,7-tetrahydropyrazolo[1,5-a]pyridin-2-yl)-4-cyanopyrazol-5-yl)-N-(cyclopropylmethyl)-2,2,2-trifluoroacetoamide] | 9 (9: 90% to less than 100%) | 9 (9: 90% to less than 100%) | 8 (8: 80% to less than 90%) | 9 (9: 90% to less than 100%) | 8 (8: 80% to less than 90%) | 8 (8: 80% to less than 90%) | 0 (0 (exponent): 0% to less than 10% (growth inhibition rate)) | 1 (1: 10% to less than 20%) | 10 (10: 100%) | 10 (10: 100%) | 10 (10: 100%) | 10 (10: 100%) | 10 (10: 100%) | 10 (10: 100%) | 10 (10: 100%) | 10 (10: 100%) | 10 (10: 100%) | 10 (10: 100%) | 10 (10: 100%) | 10 (10: 100%) | melting point: 87.3 to 101 °C
N#Cc1cnn(-c2nn3c(c2Cl)CCCC3)c1NC1CC1 [Control agent 4.84, reference compound] | 3 (3: 30% to less than 40%) | 5 (5: 50% to less than 60%) | 2 (2: 20% to less than 30%) | 3 (3: 30% to less than 40%) | 3 (3: 30% to less than 40%) | 4 (4: 40% to less than 50%) | 0 (0 (exponent): 0% to less than 10% (growth inhibition rate)) | 2 (2: 20% to less than 30%) | 6 (6: 60% to less than 70%) | 6 (6: 60% to less than 70%) | 6 (6: 60% to less than 70%) | 6 (6: 60% to less than 70%) | 5 (5: 50% to less than 60%) | 5 (5: 50% to less than 60%) | 6 (6: 60% to less than 70%) | 7 (7: 70% to less than 80%) | 6 (6: 60% to less than 70%) | 7 (7: 70% to less than 80%) | 5 (5: 50% to less than 60%) | 6 (6: 60% to less than 70%) | 
N#Cc1cnn(-c2nn3c(c2Cl)CCCC3)c1NCC1CO1 (stereo not shown) [Control agent 4.129, reference compound] | 1 (1: 10% to less than 20%) | 3 (3: 30% to less than 40%) | 0 (0 (exponent): 0% to less than 10% (growth inhibition rate)) | 0 (0 (exponent): 0% to less than 10% (growth inhibition rate)) | 3 (3: 30% to less than 40%) | 4 (4: 40% to less than 50%) | 1 (1: 10% to less than 20%) | 2 (2: 20% to less than 30%) | 6 (6: 60% to less than 70%) | 7 (7: 70% to less than 80%) | 6 (6: 60% to less than 70%) | 6 (6: 60% to less than 70%) | 4 (4: 40% to less than 50%) | 5 (5: 50% to less than 60%) | 7 (7: 70% to less than 80%) | 7 (7: 70% to less than 80%) | 6 (6: 60% to less than 70%) | 7 (7: 70% to less than 80%) | 4 (4: 40% to less than 50%) | 5 (5: 50% to less than 60%) | 
